The record followed here is patent publication US20050026899A1, “Metabolite” (priority 2003, published 2005).

Each structure is given as a SMILES string. pKi: −log10 of the molar value.

Holding throughout (set-up): species or system Mice
The target in assay [1] is T1, dopamine D2 receptor (Mus musculus, UniProt P61168).
T1 construct: serotonin (5-HT2) receptors relative to dopamine (D2) receptors in the brain; from tissue; host or cells: brain (rodent)
In words: binding affinity for dopamine D2 receptor. The source says:
(§1) An assessment of dopamine antagonism was made in rodent models. The methods and procedures used can be found in J. Med. Chem., 44 (3), 372-389, 2001 and are incorporated herein by reference. […] It is this combination of serotonin and dopamine receptor antagonism, with higher relative 5-HT2 to D2 receptor affinity that indicates the compound of Formula I as a potent atypical antipsychotic. J. Goldstein, Quetiapine Fumarate (Seroquel): a new atypical antipsychotic, 35(3) Drugs of Today 193-210 (1999). […] Low potency at the D2 receptor is considered advantageous since it a characteristic shared with Clozapine.

In assay [2] the target is T2, brain serotonin 5-HT2 receptor (Mus musculus, UniProt P35363).
T2 construct: from tissue; host or cells: brain (rodent)
In words: binding affinity for brain serotonin 5-HT2 receptor.
Text: as §1

Assay [3] deals with T3, dopamine D1 receptor (Mus musculus, UniProt Q61616).
T3 construct: from tissue
The assay is described as follows: binding affinity for dopamine D1 receptor. The following applies: tested as the dihydrochloride salt; read-out: binding affinity for dopamine D1 receptor (K1).
Text: as §1

T2 sequence (P35363 whole entry): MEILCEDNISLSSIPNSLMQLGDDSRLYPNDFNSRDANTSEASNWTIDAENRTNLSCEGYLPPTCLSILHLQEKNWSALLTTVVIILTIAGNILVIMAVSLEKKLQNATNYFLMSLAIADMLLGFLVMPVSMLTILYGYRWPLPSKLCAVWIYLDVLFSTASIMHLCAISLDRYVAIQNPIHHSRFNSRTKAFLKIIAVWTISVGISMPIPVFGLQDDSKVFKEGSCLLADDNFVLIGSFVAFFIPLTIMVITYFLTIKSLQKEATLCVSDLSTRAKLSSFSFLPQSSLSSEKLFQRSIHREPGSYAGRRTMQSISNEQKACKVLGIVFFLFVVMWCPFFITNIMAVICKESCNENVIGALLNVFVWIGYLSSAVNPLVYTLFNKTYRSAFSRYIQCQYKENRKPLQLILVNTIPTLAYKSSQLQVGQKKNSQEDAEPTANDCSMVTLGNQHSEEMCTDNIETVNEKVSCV
T1 sequence (P61168 whole entry): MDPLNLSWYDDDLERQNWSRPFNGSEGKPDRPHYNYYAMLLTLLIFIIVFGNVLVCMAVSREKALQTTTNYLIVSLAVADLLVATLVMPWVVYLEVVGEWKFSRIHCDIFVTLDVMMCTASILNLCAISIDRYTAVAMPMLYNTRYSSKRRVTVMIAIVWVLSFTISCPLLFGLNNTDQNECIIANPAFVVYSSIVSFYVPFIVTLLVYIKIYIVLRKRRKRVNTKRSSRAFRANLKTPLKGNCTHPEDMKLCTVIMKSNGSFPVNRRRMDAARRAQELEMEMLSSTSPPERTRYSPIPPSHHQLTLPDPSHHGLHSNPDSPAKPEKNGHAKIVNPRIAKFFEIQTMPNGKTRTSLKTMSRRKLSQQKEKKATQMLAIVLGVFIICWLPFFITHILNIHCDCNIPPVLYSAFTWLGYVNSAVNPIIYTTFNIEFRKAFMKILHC
T3 sequence (Q61616 whole entry): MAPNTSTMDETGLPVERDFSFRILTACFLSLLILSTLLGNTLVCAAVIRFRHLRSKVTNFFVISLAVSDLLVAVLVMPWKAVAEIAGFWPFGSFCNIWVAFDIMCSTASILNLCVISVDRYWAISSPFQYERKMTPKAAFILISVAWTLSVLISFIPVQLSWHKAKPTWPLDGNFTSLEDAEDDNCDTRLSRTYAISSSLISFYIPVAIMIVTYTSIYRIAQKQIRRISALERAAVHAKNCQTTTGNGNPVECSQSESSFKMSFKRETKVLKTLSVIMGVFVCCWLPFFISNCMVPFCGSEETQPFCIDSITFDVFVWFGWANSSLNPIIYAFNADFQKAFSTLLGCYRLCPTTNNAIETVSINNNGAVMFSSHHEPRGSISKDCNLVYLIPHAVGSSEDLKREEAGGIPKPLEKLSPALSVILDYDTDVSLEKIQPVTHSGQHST

In the case of `Oc1ccc2c(c1)Sc1ccccc1C(N1CCNCC1)=N2` [Formula I, 11-piperazin-1-yldibenzo[b,f][1,4]thiazepin-7-ol], in assay [1], the “affinity for D2 (in words)” value was “moderate affinity”. Moreover, the pKi was 7.46 in assay [1] (tested as the dihydrochloride salt, read-out: binding affinity for dopamine D2 receptor (K1)); 8.19 in assay [2] (tested as the dihydrochloride salt, brain receptor, read-out: binding affinity for brain serotonin 5-HT2 receptor (K1)); 6.54 in assay [3]. The “affinity for serotonin (5-HT2) receptors relative to dopamine (D2) receptors in the brain” value in assay [2] (as the dihydrochloride salt, 5-HT2 versus D2) is reported as “higher affinity”.
